Legend:
Assay in all cases: Antibacterial and antifungal activity, paper disc method
Assay type in all cases: cell-based
[1] = system: Staphylococcus aureus IFO-12732; details: IFO12732, paper disc d=8 mm dipped in 1,000 µg/ml solution, TSA medium, read-out: diameter of the growth inhibition circle, Sta.(IFO-12732)
Procedure: (§1) Antibacterial and antifungal activity tests for various bacteria and fungi were conducted. The tests were carried out by the conventional paper disc method. That is, a paper disc (d=8 mm) was dipped in aqueous or methanol solution of the compound of the present invention (concentration : 1,000 µg/ml), then dried and used.
(§2) As bacteria to be tested, • ① Staphylococcus aureus IFO-12732 [hereinafter abbreviated to Sta.] • ② Bacillus subtilis IFO-13719 [Bac.] • ③ Escherichia coli IFO-3301 [Esc.] were used. As yeast to be tested, • ④ Saccharomyces cerevisiae IFO-0210 [Sac.] • ⑤ Candida albicans IFO-0583 [Can.] were used. As fungi to be tested, • ⑥ Aspergillus niger IFO-4407 [Asp.] • ⑦ Penicillium citrinum IFO-7784 [Pen.] • ⑧ Tyromyces palustris IFO-30339 [Tyr.] • ⑨ Coriolus versicolor IFO-30340 [Cor.] were used. Among the above fungi, Tyr. and Cor. are wood rot fungi.
(§3) As the test media, agar media shown below were used. That is, TSA (Trypticase Soy Agar) medium was used for Sta., Bac. and Esc.; YNB (Yeast Nitrogen Base) agar medium was used for Sac. and Can.; SDA (Sabouraud Dextrose Agar) medium was used for Asp. and Pen.; and PDA (Potato Dextrose Agar) medium was used for Try. and Cor.
(§4) The determination of antibacterial and antifungal effectiveness was carried out by measuring the diameter of the growth inhibition circle generated on the circumference of the paper disc. The indication of effectiveness is given as follows: -: no growth inhibition circle was observed. +: diameter of the growth inhibition circle was 9 - 20 mm ++: diameter of the growth inhibition circle was 21 - 40 mm +++: diameter of the growth inhibition circle was 41 mm or more

[2] = system: Coriolus versicolor IFO-30340; details: Trametes versicolor, IFO30340; paper disc d=8 mm dipped in 1,000 µg/ml solution; PDA medium; read-out: diameter of the growth inhibition circle, Cor.(IFO-30340)
Procedure: as §1, §2, §3, §4

[3] = system: Escherichia coli IFO-3301; details: paper disc d=8 mm dipped in 1,000 µg/ml solution, TSA medium; for zone of inhibition at 1000 µg/mL: Escherichia coli, IFO3301, read-out: diameter of the growth inhibition circle, Esc.(IFO-3301)
Procedure: as §1, §2, §3, §4

[4] = system: Saccharomyces cerevisiae IFO-0210; details: IFO0210, paper disc d=8 mm dipped in 1,000 µg/ml solution, YNB agar medium, read-out: diameter of the growth inhibition circle, Sac.(IFO-0210)
Procedure: as §1, §2, §3, §4

[5] = system: Tyromyces palustris IFO-30339; details: paper disc d=8 mm dipped in 1,000 µg/ml solution; PDA medium; read-out: diameter of the growth inhibition circle, Tyr.(IFO-30339)
Procedure: as §1, §2, §3, §4

[6] = system: Penicillium citrinum IFO-7784; details: IFO7784, paper disc d=8 mm dipped in 1,000 µg/ml solution, SDA medium, read-out: diameter of the growth inhibition circle, Pen.(IFO-7784)
Procedure: as §1, §2, §3, §4

[7] = system: Aspergillus niger IFO-4407; details: IFO4407, paper disc d=8 mm dipped in 1,000 µg/ml solution, SDA medium, read-out: diameter of the growth inhibition circle, Asp.(IFO-4407)
Procedure: as §1, §2, §3, §4

In the case of CC(C)(C)NC(=O)C#CI [Example 1, N-(tert-Butyl)-3-iodopropiolamide], the zone of inhibition at 1000 µg/mL [1] is reported as 9 to 20 mm, the zone of inhibition at 1000 µg/mL [2] is reported as > 41 mm and the zone of inhibition at 1000 µg/mL [3] is reported as 9 to 20 mm. The zone of inhibition at 1000 µg/mL [4] was 21 to 40 mm, the zone of inhibition at 1000 µg/mL [5] was > 41 mm and the zone of inhibition at 1000 µg/mL [6] was > 41 mm. For the same compound, the zone of inhibition at 1000 µg/mL [7] was 21 to 40 mm.
CCCCCCCCCCNC(=O)C#CI [Example 2, N-(n-Decyl)-3-iodopropiolamide] was tested, and the zone of inhibition at 1000 µg/mL [1] was 9 to 20 mm, the zone of inhibition at 1000 µg/mL [2] was 21 to 40 mm and the “diameter of the growth inhibition circle, Esc.(IFO-3301)” value [3] was “-”. For the same compound, the zone of inhibition at 1000 µg/mL [4] was 9 to 20 mm, the zone of inhibition at 1000 µg/mL [5] was 9 to 20 mm and the zone of inhibition at 1000 µg/mL [6] was 9 to 20 mm. It also gave a zone of inhibition at 1000 µg/mL [7] of 9 to 20 mm.
With CCCCNC(=O)C#CI [Example 4, N-(n-Butyl)-3-iodopropiolamide] the zone of inhibition at 1000 µg/mL [1] was 21 to 40 mm, the zone of inhibition at 1000 µg/mL [2] was > 41 mm and the zone of inhibition at 1000 µg/mL [3] was 9 to 20 mm. The zone of inhibition at 1000 µg/mL [4] was 21 to 40 mm, the zone of inhibition at 1000 µg/mL [5] was > 41 mm and the zone of inhibition at 1000 µg/mL [6] was > 41 mm. It also gave a zone of inhibition at 1000 µg/mL [7] of 21 to 40 mm.
For CCC(C)NC(=O)C#CI (stereo not shown) [Example 5, N-(sec-Butyl)-3-iodopropiolamide], the zone of inhibition at 1000 µg/mL [1] was 21 to 40 mm, the zone of inhibition at 1000 µg/mL [2] was > 41 mm and the zone of inhibition at 1000 µg/mL [3] was 9 to 20 mm. For the same compound, the zone of inhibition at 1000 µg/mL [4] was 21 to 40 mm, the zone of inhibition at 1000 µg/mL [5] was > 41 mm and the zone of inhibition at 1000 µg/mL [6] was > 41 mm. It also gave a zone of inhibition at 1000 µg/mL [7] of 21 to 40 mm.
In the case of CC(C)CNC(=O)C#CI [Example 6, N-Isobutyl-3-iodopropiolamide], the zone of inhibition at 1000 µg/mL [1] is reported as 21 to 40 mm, the zone of inhibition at 1000 µg/mL [2] is reported as 21 to 40 mm and the “diameter of the growth inhibition circle, Esc.(IFO-3301)” value [3] is reported as “-”. The zone of inhibition at 1000 µg/mL [4] was 21 to 40 mm, the zone of inhibition at 1000 µg/mL [5] was > 41 mm and the zone of inhibition at 1000 µg/mL [6] was 21 to 40 mm. The zone of inhibition at 1000 µg/mL [7] was 21 to 40 mm.
In the case of CCCCCNC(=O)C#CI [Example 7, N-(n-Pentyl)-3-iodopropiolamide], the zone of inhibition at 1000 µg/mL [1] is reported as 21 to 40 mm, the zone of inhibition at 1000 µg/mL [2] is reported as > 41 mm and the zone of inhibition at 1000 µg/mL [3] is reported as 9 to 20 mm. The zone of inhibition at 1000 µg/mL [4] was 21 to 40 mm, the zone of inhibition at 1000 µg/mL [5] was > 41 mm and the zone of inhibition at 1000 µg/mL [6] was > 41 mm. It also gave a zone of inhibition at 1000 µg/mL [7] of 21 to 40 mm.
CCCCCCNC(=O)C#CI [Example 8, N-(n-Hexyl)-3-iodopropiolamide] was tested, and the zone of inhibition at 1000 µg/mL [1] was 21 to 40 mm, the zone of inhibition at 1000 µg/mL [2] was > 41 mm and the zone of inhibition at 1000 µg/mL [3] was 9 to 20 mm. The zone of inhibition at 1000 µg/mL [4] was 21 to 40 mm, the zone of inhibition at 1000 µg/mL [5] was > 41 mm and the zone of inhibition at 1000 µg/mL [6] was > 41 mm. The zone of inhibition at 1000 µg/mL [7] was 21 to 40 mm.
For CCCCCCCNC(=O)C#CI [Example 9, N-(n-Heptyl)-3-iodopropiolamide], the zone of inhibition at 1000 µg/mL [1] was 9 to 20 mm, the zone of inhibition at 1000 µg/mL [2] was > 41 mm and the “diameter of the growth inhibition circle, Esc.(IFO-3301)” value [3] was “-”. For the same compound, the zone of inhibition at 1000 µg/mL [4] was 21 to 40 mm, the zone of inhibition at 1000 µg/mL [5] was > 41 mm and the zone of inhibition at 1000 µg/mL [6] was > 41 mm. For the same compound, the zone of inhibition at 1000 µg/mL [7] was 21 to 40 mm.
CCCCCCCCNC(=O)C#CI [Example 10, N-(n-Octyl)-3-iodopropiolamide] was tested, and the zone of inhibition at 1000 µg/mL [1] was 9 to 20 mm, the zone of inhibition at 1000 µg/mL [2] was > 41 mm and the “diameter of the growth inhibition circle, Esc.(IFO-3301)” value [3] was “-”. The zone of inhibition at 1000 µg/mL [4] was 21 to 40 mm, the zone of inhibition at 1000 µg/mL [5] was 21 to 40 mm and the zone of inhibition at 1000 µg/mL [6] was 21 to 40 mm. It also gave a zone of inhibition at 1000 µg/mL [7] of 9 to 20 mm.
CCCCCCCCCNC(=O)C#CI [Example 11, N-(n-Nonyl)-3-iodopropiolamide] was tested, and the zone of inhibition at 1000 µg/mL [1] was 9 to 20 mm, the zone of inhibition at 1000 µg/mL [2] was > 41 mm and the “diameter of the growth inhibition circle, Esc.(IFO-3301)” value [3] was “-”. It also gave a zone of inhibition at 1000 µg/mL [4] of 9 to 20 mm, a zone of inhibition at 1000 µg/mL [5] of 21 to 40 mm and a zone of inhibition at 1000 µg/mL [6] of 21 to 40 mm. It also gave a zone of inhibition at 1000 µg/mL [7] of 9 to 20 mm.

Reference: patent publication EP0519427A2, “N-substituted-3-iodopropiolamide, production and use thereof” (priority 1991, dated 1992)
